Laboratory results published in US20250345446A1 (Draupnir Bio ApS, priority 2022, published 2025).

Experiments:
[1] = biological target: T1, soluble ectodomain of sortilin-6his (Homo sapiens, UniProt Q99523, V650M); experiment: MST binding to soluble ectodomain of sortilin-6his; details: Table 4; small molecule bifunctional compounds; MST; read-out: KD score, binding to sortilin (Kd)
T1 construct: the soluble ectodomain of sortilin-6his is measured by microscale thermophoresis (MST)

[2] = test system: HEK293 cells expressing full length sortilin receptor; experiment: Cellular uptake of NA650 in HEK293/sortilin cells; type: cell-based; details: Table 6; NA650 (100 nM), 3 h, biotin warhead compounds
Outline: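 HEK293 cells stably expressing full-length sortilin, seeded overnight, were exposed for 3 h at 37° C. in DMEM/10% FBS to NA650 (100 nM) with peptidic bifunctional compounds (9.8 nM to 10 μM). After dPBS washes, cell-associated DyLight650 fluorescence was read on a plate reader.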

[3] = biological target: T2, Streptavidin-d2 and Sortilin-6His (UniProt P22629+Q99523, V650M); experiment: TR-FRET ternary complex formation streptavidin / small molecule bifunctional compound / sortilin; type: binding; details: Table 5; 5 μM-0.6 pM, […] incubation
T2 construct: ternary complex formation composed of streptavidin, bifunctional compound and sortilin-6his

TNFa-6His = TNFa-6His (Homo sapiens, UniProt P01375); experiment: MST binding to TNFa-6his; details: Table 8, NTA labeled TNFa-6His (100 nM), read-out: KD (score), Kd of TNFalpha binding
Sequence of TNFa-6His (P01375 77-233 limits assumed): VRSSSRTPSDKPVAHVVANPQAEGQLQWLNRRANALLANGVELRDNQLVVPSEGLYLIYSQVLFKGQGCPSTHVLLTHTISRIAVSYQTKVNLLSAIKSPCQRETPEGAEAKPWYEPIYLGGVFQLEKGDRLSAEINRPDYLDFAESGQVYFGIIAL
Description: MST was measure analogously to example 1 using TNFa-6his.

T1 sequence (Q99523 with tags, fused parts or gaps V650M): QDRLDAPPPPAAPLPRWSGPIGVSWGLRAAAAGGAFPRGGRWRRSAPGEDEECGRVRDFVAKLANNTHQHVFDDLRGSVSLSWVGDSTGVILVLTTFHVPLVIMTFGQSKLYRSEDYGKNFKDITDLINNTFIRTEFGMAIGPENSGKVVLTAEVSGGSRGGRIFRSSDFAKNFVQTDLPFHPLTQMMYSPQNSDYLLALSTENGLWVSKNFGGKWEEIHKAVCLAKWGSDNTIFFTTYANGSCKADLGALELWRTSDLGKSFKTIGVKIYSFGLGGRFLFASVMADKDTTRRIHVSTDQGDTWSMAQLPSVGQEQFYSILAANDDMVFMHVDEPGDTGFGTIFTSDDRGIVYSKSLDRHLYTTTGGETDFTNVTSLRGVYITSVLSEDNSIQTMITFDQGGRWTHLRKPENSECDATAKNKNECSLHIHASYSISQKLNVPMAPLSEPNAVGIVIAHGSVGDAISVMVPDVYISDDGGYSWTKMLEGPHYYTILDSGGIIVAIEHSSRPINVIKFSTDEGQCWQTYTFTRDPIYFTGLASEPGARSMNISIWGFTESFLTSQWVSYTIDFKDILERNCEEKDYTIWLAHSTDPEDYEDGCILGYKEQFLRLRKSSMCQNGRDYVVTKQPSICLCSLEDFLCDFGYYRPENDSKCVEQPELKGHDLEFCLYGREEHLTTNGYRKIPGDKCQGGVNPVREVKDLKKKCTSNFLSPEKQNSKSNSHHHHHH

Row | Compound | Kd [1] [nM] | Kd (TNFa-6His) [nM] | AUC score, target internalization [2] | AUC score, ternary complex formation [3]
1 | CC(C)(C)CC[C@H](NC(=O)c1ccc(Oc2cccc(OCCOCCOCCOCCOCCOCCOCCOCCOCCNC(=O)CCCC[C@@H]3SC[C@@H]4NC(=O)N[C@@H]43)c2)nc1)C(=O)O [BF026, (2S)-2-[[6-[3-[2-[2-[2-[2-[2-[2-[2-[2-[2-[5-[(3aS,4S,6aR)-2-oxo-1,3,3a,4,6,6a-hexahydrothieno[3,4-d]imidazol-4-yl]pentanoylamino]ethoxy]ethoxy]ethoxy]ethoxy]ethoxy]ethoxy]ethoxy]ethoxy]ethoxy]phenoxy]pyridine-3-carbonyl]amino]-5,5-dimethyl-hexanoic acid] | 10 to 250 |  | ++ (AUC > 100) | ++ (AUC > 25.000)
2 | C[C@@H]1CN(c2ncc(-c3ccc4c(n3)N(Cc3cccnc3C#N)C(C)(C)C4=O)cn2)CCN1C(=O)CNC(=O)CCCCCCCCCCn1cc(-c2cccc(Oc3ccc(C(=O)N[C@@H](CCC(C)(C)C)C(=O)O)cn3)c2)nn1 [BF081, (2S)-2-[[6-[3-[1-[11-[[2-[(2R)-4-[5-[1-[(2-cyano-3-pyridyl)methyl]-2,2-dimethyl-3-oxo-pyrrolo[2,3-b]pyridin-6-yl]pyrimidin-2-yl]-2-methyl-piperazin-1-yl]-2-oxo-ethyl]amino]-11-oxo-undecyl]triazol-4-yl]phenoxy]pyridine-3-carbonyl]amino]-5,5-dimethyl-hexanoic acid] | 1 to 10 | < 2000 |  | 
3 | C[C@@H]1CN(c2ncc(-c3ccc4c(n3)N(Cc3cccnc3C#N)C(C)(C)C4=O)cn2)CCN1C(=O)CNC(=O)COCCOCCOCCOCCOc1cccc(Oc2ccc(C(=O)N[C@@H](CCC(C)(C)C)C(=O)O)cn2)c1 [BF082] | 1 to 10 | > 2000 |  | 
4 | C[C@@H]1CN(c2ncc(-c3ccc4c(n3)N(Cc3cccnc3C#N)C(C)(C)C4=O)cn2)CCN1C(=O)CNC(=O)CCCCCOCCOCCNC(=O)c1cccc(Oc2ccc(C(=O)N[C@@H](CCC(C)(C)C)C(=O)O)cn2)c1 [BF0100] |  | < 2000 |  | 

Further lines, with some results ahead:

Row | Kd [1] [nM] | Kd (TNFa-6His) [nM] | Compound | AUC score, target internalization [2] | AUC score, ternary complex formation [3]
5 | 10 to 250 | < 2000 | Cc1nc2cc(F)c(-c3cnc(OCCCCCn4cc(COCCOCCOCCOCCNC(=O)c5ccc(Oc6cccc(OCC(=O)N[C@@H](CCC(C)(C)C)C(=O)O)c6)nc5)nn4)nc3)nc2c(N[C@H](C)c2cc(C#N)ccc2F)c1Cl [BF076] |  | 
6 |  | < 2000 | Cc1nc2cc(F)c(-c3cnc(OCCOCCOCCOCCOCCOCCOCCNC(=O)c4ccc(Oc5cccc(OCC(=O)N[C@@H](CCC(C)(C)C)C(=O)O)c5)nc4)nc3)nc2c(N[C@H](C)c2cc(C#N)ccc2F)c1Cl [BF079] |  | 
7 | < 1 | < 2000 | Cc1cc(-c2ccc(OCC(=O)NCCOCCOCc3cn(CCCCCOc4ncc(-c5nc6c(N[C@@H](C)c7cc(C#N)ccc7F)c(Cl)c(C)nc6cc5F)cn4)nn3)cc2)cc(NC(=O)c2ccc(C(F)(F)F)cc2C(=O)O)n1 [BF080] |  | 
